Assays:
[1] = test system: cytochrome p450 IA1 (CYPIAI) gene expression; assay: Northern analysis of CYPIAI induction in BEP2D cells; assay type: cell-based, human; settings: 10 μM, varying times, vs 0.1% DMSO control
Procedure: (§1) In a second set of experiments, multiplex competitive reverse transcriptase polymerase chain reaction (MC RT-PCR) with competitive templates were prepared by the Celi method to evaluate the cytochrome p450 (CYP) IAI gene in β-napthoflavone-exposed BEP2D cells. The induction of CYPIAI gene expression was evaluated using both MC RT-PCR with Celi competitive templates, and Northern analysis. Competitive templates were prepared for both the CYPIAI and GAPDH genes. The primers used to prepare the competitive template for GAPDH were: […]
RNA from BEP2D cells incubated for varying times with […] (10 μM) was either electrophoresed on a 1% LE formaldehyde denaturing gel for Northern analysis or MC RT-PCR amplified, as described above. For Northern analysis, following transfer of the RNA to GeneScreen, the filters were hybridized with ^32P-labeled CYPIAI cDNA.
FIG. 36A illustrates Northern analysis of RNA obtained from BEP2D cells that were treated with 0.1% DMSO as a control, or, β-napthoflavone in an effort to induce cytochrome p450 IA1 (CYPIAI). FIG. 36B illustrates DNA PCR-amplified from serial dilutions of cDNA from the same cells used in FIG. 36SA. The cDNA was co-amplified in the presence of competitive templates for GAPDH and CYPIAI, according to some embodiments of the instant invention.

[2] = test system: cytochrome p450 IA1 (CYPIAI) gene expression; assay: MC RT-PCR with Celi competitive templates, CYPIAI induction in BEP2D cells; assay type: cell-based, human; settings: 10 μM, exposed vs control cells, about the same cDNA loaded
Procedure: as §1
The PCR amplification conditions were the same as described for experiments using the competitive templates prepared for GAPDH and GSHPx by the Higuchi method except the annealing temperature was 55 degrees centigrade and the amplification was carried out for 38 cycles.
Because the native and competitive templates separate without prior restriction endonuclease digestion, samples were taken directly from the PCR reaction tube and applied to ethidium bromide stained 3% Nusieve, 1% LE agarose gels. It was then possible to quantify the products by taking a negative photograph of the gel using Polaroid 665 positive/negative instant film, subjecting the negative photograph to densitometry. […]

In the case of `O=c1cc(-c2ccccc2)oc2ccc3ccccc3c12` [β-napthoflavone], the “gene expression of the CYPIAI gene (Northern analysis)” value [1] is reported as “increase” and the “band representing the native CYPIAI gene (MC RT-PCR, GAPDH reference)” value [2] is reported as “much more strongly represented”.

From US20060188909A1, “Business methods for assessing nucleic acids” (Medical College of Ohio, priority 2005, published 2006)
